Assay results taken from article PMC5218480 (PLoS ONE, 2017).

Test system: MV-4-11 cells
Assay: Gene expression microarray analysis (Affymetrix PrimeView) and GSEA
Assay type: cell-based, human
Design: RFU PODN (11730768_x_at) / Fold change /veh PODN (11730768_x_at) / RFU LINC00158 (11744669_a_at) / Fold change /veh LINC00158 (11744669_a_at) / RFU DUSP10 (11751237_a_at) / Fold change /veh DUSP10 (11751237_a_at) / RFU ID3 (11757404_x_at) / Fold change /veh ID3 (11757404_x_at) / RFU PLEKHG5 (11737974_s_at) / Fold change /veh PLEKHG5 (11737974_s_at) / RFU LRRC4B (11730491_at) / Fold change /veh LRRC4B (11730491_at) / RFU GIMAP4 (11747438_a_at) / Fold change /veh GIMAP4 (11747438_a_at) / RFU KRT8 (11758183_x_at) / Fold change /veh KRT8 (11758183_x_at) / RFU CNN1 (11734310_a_at) / Fold change /veh CNN1 (11734310_a_at) / RFU VPS37D (11726825_at) / Fold change /veh VPS37D (11726825_at) / RFU C10orf10 (11716522_x_at) / Fold change /veh C10orf10 (11716522_x_at) / RFU KIR2DL2 /// KIR2DL4 /// KIR2DL5A /// KIR2DL5B /// KIR2DS1 /// KIR2DS2 /// KIR2DS3 /// KIR2DS4 /// KIR3DL3 /// KIR3DL3 /// KIR3DS1 (11738374_at) / Fold change /veh KIR2DL2 /// KIR2DL4 /// KIR2DL5A /// KIR2DL5B /// KIR2DS1 /// KIR2DS2 /// KIR2DS3 /// KIR2DS4 /// KIR3DL3 /// KIR3DL3 /// KIR3DS1 (11738374_at) / RFU C1QL1 (11718748_at) / Fold change /veh C1QL1 (11718748_at) / RFU TMPRSS4 (11747572_a_at) / Fold change /veh TMPRSS4 (11747572_a_at) / RFU HAMP (11756126_x_at) / Fold change /veh HAMP (11756126_x_at) / RFU RNFT2 (11725882_a_at) / Fold change /veh RNFT2 (11725882_a_at) / RFU NR4A2 (11747474_a_at) / Fold change /veh NR4A2 (11747474_a_at) / RFU ABCC12 (11746883_a_at) / Fold change /veh ABCC12 (11746883_a_at) / RFU TMEM136 (11760407_x_at) / Fold change /veh TMEM136 (11760407_x_at) / RFU CLDN22 /// WWC2 (11732394_at) / Fold change /veh CLDN22 /// WWC2 (11732394_at) / RFU HLA-DPB1 (11760878_x_at) / Fold change /veh HLA-DPB1 (11760878_x_at) / RFU SPINT1 (11716480_a_at) / Fold change /veh SPINT1 (11716480_a_at) / RFU GAP43 (11754022_s_at) / Fold change /veh GAP43 (11754022_s_at) / RFU A4GNT (11735810_at) / Fold change /veh A4GNT (11735810_at) / RFU PRB3 (11715151_x_at) / Fold change /veh PRB3 (11715151_x_at) / RFU TUBB4B (11761932_at) / Fold change /veh TUBB4B (11761932_at) / RFU CAPN14 (11732068_a_at) / Fold change /veh CAPN14 (11732068_a_at) / RFU TMCC2 (11721928_a_at) / Fold change /veh TMCC2 (11721928_a_at) / RFU IRGQ (11745062_a_at) / Fold change /veh IRGQ (11745062_a_at) / RFU FAM174B (11720279_a_at) / Fold change /veh FAM174B (11720279_a_at) / RFU TMPRSS4 (11748680_a_at) / Fold change /veh TMPRSS4 (11748680_a_at) / RFU FAM212B (11763350_a_at) / Fold change /veh FAM212B (11763350_a_at) / RFU PLEKHG5 (11743358_a_at) / Fold change /veh PLEKHG5 (11743358_a_at) / RFU ZSCAN30 (11745921_a_at) / Fold change /veh ZSCAN30 (11745921_a_at) / RFU CMKLR1 (11741424_a_at) / Fold change /veh CMKLR1 (11741424_a_at) / RFU LOC101060620 /// MAPK8IP1 (11723275_at) / Fold change /veh LOC101060620 /// MAPK8IP1 (11723275_at) / RFU SPTSSB (11747773_x_at) / Fold change /veh SPTSSB (11747773_x_at) / RFU PRSS12 (11739890_at) / Fold change /veh PRSS12 (11739890_at) / RFU BIN1 (11741810_x_at) / Fold change /veh BIN1 (11741810_x_at) / RFU WNT11 (11732464_a_at) / Fold change /veh WNT11 (11732464_a_at) / RFU C10orf10 (11716521_a_at) / Fold change /veh C10orf10 (11716521_a_at) / RFU C5orf56 (11738089_at) / Fold change /veh C5orf56 (11738089_at) / RFU CYB561 (11721691_x_at) / Fold change /veh CYB561 (11721691_x_at) / RFU ANKRD19P (11752326_a_at) / Fold change /veh ANKRD19P (11752326_a_at) / RFU OR2T12 /// OR2T33 /// OR2T8 (11738714_s_at) / Fold change /veh OR2T12 /// OR2T33 /// OR2T8 (11738714_s_at) / RFU VCAN (11748164_a_at) / Fold change /veh VCAN (11748164_a_at) / RFU JSRP1 (11732532_at) / Fold change /veh JSRP1 (11732532_at) / RFU KRTAP10-11 (11738290_x_at) / Fold change /veh KRTAP10-11 (11738290_x_at) / RFU MYO3A (11730013_a_at) / Fold change /veh MYO3A (11730013_a_at) / RFU EBF3 (11725865_a_at) / Fold change /veh EBF3 (11725865_a_at) / RFU CAMK2N1 (11719241_x_at) / Fold change /veh CAMK2N1 (11719241_x_at) / RFU C5orf56 (11738088_a_at) / Fold change /veh C5orf56 (11738088_a_at) / RFU OLFML3 (11715873_a_at) / Fold change /veh OLFML3 (11715873_a_at) / RFU LOC100653217 /// NTM (11731650_a_at) / Fold change /veh LOC100653217 /// NTM (11731650_a_at) / RFU MAPK11 (11762145_a_at) / Fold change /veh MAPK11 (11762145_a_at) / RFU FIZ1 (11724087_x_at) / Fold change /veh FIZ1 (11724087_x_at) / RFU OASL (11726364_x_at) / Fold change /veh OASL (11726364_x_at) / RFU SOX15 (11748057_x_at) / Fold change /veh SOX15 (11748057_x_at) / RFU CD79A (11719716_a_at) / Fold change /veh CD79A (11719716_a_at) / RFU HIST1H1D (11736915_at) / Fold change /veh HIST1H1D (11736915_at) / RFU CASKIN2 (11723855_a_at) / Fold change /veh CASKIN2 (11723855_a_at) / RFU LOC730098 (11760151_x_at) / Fold change /veh LOC730098 (11760151_x_at) / RFU OR4N2 (11742367_at) / Fold change /veh OR4N2 (11742367_at) / RFU PRRT2 (11749266_a_at) / Fold change /veh PRRT2 (11749266_a_at) / RFU SNX32 (11753110_a_at) / Fold change /veh SNX32 (11753110_a_at) / RFU CDHR5 (11726645_a_at) / Fold change /veh CDHR5 (11726645_a_at) / RFU RCAN1 (11760418_a_at) / Fold change /veh RCAN1 (11760418_a_at) / RFU FAM167A (11723789_a_at) / Fold change /veh FAM167A (11723789_a_at) / RFU FAM26E (11764081_at) / Fold change /veh FAM26E (11764081_at) / RFU ISYNA1 (11749810_s_at) / Fold change /veh ISYNA1 (11749810_s_at) / RFU ACY1 (11761880_at) / Fold change /veh ACY1 (11761880_at) / RFU 11764098_at / Fold change /veh 11764098_at / RFU SAMD14 (11745864_x_at) / Fold change /veh SAMD14 (11745864_x_at) / RFU NPB (11741838_a_at) / Fold change /veh NPB (11741838_a_at) / RFU TMPRSS6 (11731388_a_at) / Fold change /veh TMPRSS6 (11731388_a_at) / RFU KRTAP10-2 (11738614_at) / Fold change /veh KRTAP10-2 (11738614_at) / RFU ARHGAP8 /// PRR5-ARHGAP8 (11727945_x_at) / Fold change /veh ARHGAP8 /// PRR5-ARHGAP8 (11727945_x_at) / RFU KRTAP5-7 /// NADSYN1 (11734609_at) / Fold change /veh KRTAP5-7 /// NADSYN1 (11734609_at) / RFU RASL12 (11751679_a_at) / Fold change /veh RASL12 (11751679_a_at) / RFU CDKN2B (11736163_a_at) / Fold change /veh CDKN2B (11736163_a_at) / RFU PRF1 (11729649_at) / Fold change /veh PRF1 (11729649_at) / RFU, ZNF638 /// ZNF638-IT1 / Fold change vs veh, ZNF638 /// ZNF638-IT1 / RFU, PANK3 / Fold change vs veh, PANK3 / RFU, SH3YL1 / Fold change vs veh, SH3YL1 / RFU, ZEB2 / Fold change vs veh, ZEB2 / RFU, NRIP1 / Fold change vs veh, NRIP1 / RFU, PTTG1IP / Fold change vs veh, PTTG1IP / RFU, CAPN2 / Fold change vs veh, CAPN2 / RFU, MED14 / Fold change vs veh, MED14 / RFU, SNORA58 / Fold change vs veh, SNORA58 / RFU, C1orf63 / Fold change vs veh, C1orf63 / RFU, LRRFIP1 / Fold change vs veh, LRRFIP1 / RFU, NDUFAF7 / Fold change vs veh, NDUFAF7 / RFU, SLC12A2 / Fold change vs veh, SLC12A2 / RFU, IBTK / Fold change vs veh, IBTK / RFU, ESF1 / Fold change vs veh, ESF1 / Fold change vs veh, TMEM50B / RFU, TAOK1 / Fold change vs veh, TAOK1 / RFU, ACBD3 / Fold change vs veh, ACBD3 / RFU, TMA16 / Fold change vs veh, TMA16 / RFU, RWDD3 / Fold change vs veh, RWDD3 / RFU, BCAT1 / Fold change vs veh, BCAT1 / RFU, EDEM3 / Fold change vs veh, EDEM3 / RFU, TMEM33 / Fold change vs veh, TMEM33 / RFU, WDR75 / Fold change vs veh, WDR75 / RFU, AHCTF1 / Fold change vs veh, AHCTF1 / RFU, TFRC / Fold change vs veh, TFRC / RFU, ZDHHC17 / Fold change vs veh, ZDHHC17 / RFU, NOM1 / Fold change vs veh, NOM1 / RFU, ARL8B / Fold change vs veh, ARL8B / RFU, ZBTB11 / Fold change vs veh, ZBTB11 / RFU, TAMM41 / Fold change vs veh, TAMM41 / RFU, KIAA1704 /// LOC100996395 / Fold change vs veh, KIAA1704 /// LOC100996395 / RFU, ING1 / Fold change vs veh, ING1 / RFU, TRMT61B / Fold change vs veh, TRMT61B / RFU, FUBP3 / Fold change vs veh, FUBP3 / RFU, TP53 / Fold change vs veh, TP53 / RFU, TNKS2 / Fold change vs veh, TNKS2 / RFU, ZFP14 / Fold change vs veh, ZFP14 / RFU, ACTR2 / Fold change vs veh, ACTR2 / RFU, PPP3R1 / Fold change vs veh, PPP3R1 / RFU, PIK3R1 / Fold change vs veh, PIK3R1 / RFU, HNRNPA1 / Fold change vs veh, HNRNPA1 / RFU, RNF170 / Fold change vs veh, RNF170 / RFU, ZNF28 / Fold change vs veh, ZNF28 / RFU, RNGTT / Fold change vs veh, RNGTT / RFU, OGT / Fold change vs veh, OGT / RFU, BRD1 / Fold change vs veh, BRD1 / RFU, MARS / Fold change vs veh, MARS / RFU, ZNF655 / Fold change vs veh, ZNF655 / RFU, FAHD1 / Fold change vs veh, FAHD1 / RFU, BDP1 / Fold change vs veh, BDP1 / RFU, LRRCC1 / Fold change vs veh, LRRCC1 / RFU, ARID1A / Fold change vs veh, ARID1A / RFU, ZNF146 / Fold change vs veh, ZNF146 / RFU, ZNF330 / Fold change vs veh, ZNF330 / RFU, GPN3 / Fold change vs veh, GPN3 / RFU, C9orf123 / Fold change vs veh, C9orf123 / RFU, N4BP2L2 / Fold change vs veh, N4BP2L2 / RFU, ARFIP1 / Fold change vs veh, ARFIP1 / RFU, FAM179B / Fold change vs veh, FAM179B / RFU, BCL10 / Fold change vs veh, BCL10 / RFU, UHRF1BP1L / Fold change vs veh, UHRF1BP1L / RFU, BET1 / Fold change vs veh, BET1 / RFU, CNOT2 / Fold change vs veh, CNOT2 / RFU, ZNF268 / Fold change vs veh, ZNF268 / Fold change vs veh, ZNF507 / RFU, DGCR2 / Fold change vs veh, DGCR2 / RFU, WDSUB1 / Fold change vs veh, WDSUB1 / Fold change vs veh, HSP90B1 /// MIR3652 / RFU, ADSS / Fold change vs veh, ADSS / RFU, GK / Fold change vs veh, GK / RFU, ZNF148 / Fold change vs veh, ZNF148 / RFU, TAF9 / Fold change vs veh, TAF9 / RFU, SLC1A5 / Fold change vs veh, SLC1A5 / RFU, SLMO2 / Fold change vs veh, SLMO2 / RFU, ABCC4 / Fold change vs veh, ABCC4 / RFU, LOC101060439 /// RAP1B / Fold change vs veh, LOC101060439 /// RAP1B / RFU, RFX7 / Fold change vs veh, RFX7 / RFU, GTPBP10 / Fold change vs veh, GTPBP10 / RFU, CNEP1R1 / Fold change vs veh, CNEP1R1 / RFU, BIVM-ERCC5 /// ERCC5 / Fold change vs veh, BIVM-ERCC5 /// ERCC5 / RFU, ILF3 / Fold change vs veh, ILF3 / RFU 11762660_at / Fold change /veh 11762660_at / RFU VCAN (11757783_s_at) / Fold change /veh VCAN (11757783_s_at) / RFU DDX43 (11728927_at) / Fold change /veh DDX43 (11728927_at) / RFU KRT8 (11758188_x_at) / Fold change /veh KRT8 (11758188_x_at) / RFU NKD1 (11759106_at) / Fold change /veh NKD1 (11759106_at) / RFU SRD5A1 (11742802_a_at) / Fold change /veh SRD5A1 (11742802_a_at) / RFU TPSAB1 /// TPSB2 (11721975_s_at) / Fold change /veh TPSAB1 /// TPSB2 (11721975_s_at) / RFU GSTM3 (11746129_a_at) / Fold change /veh GSTM3 (11746129_a_at) / RFU IL23R (11737362_x_at) / Fold change /veh IL23R (11737362_x_at) / RFU TMEM51 (11727254_a_at) / Fold change /veh TMEM51 (11727254_a_at) / RFU PIWIL2 (11732686_x_at) / Fold change /veh PIWIL2 (11732686_x_at) / RFU ORM1 (11744905_x_at) / Fold change /veh ORM1 (11744905_x_at) / RFU CCDC152 (11743942_at) / Fold change /veh CCDC152 (11743942_at) / RFU ECM1 (11717891_a_at) / Fold change /veh ECM1 (11717891_a_at) / RFU IL23R (11748794_a_at) / Fold change /veh IL23R (11748794_a_at) / RFU TNFAIP8L3 (11732012_x_at) / Fold change /veh TNFAIP8L3 (11732012_x_at) / RFU MBOAT4 (11741988_at) / Fold change /veh MBOAT4 (11741988_at) / RFU 11764193_at / Fold change /veh 11764193_at / RFU TMEM53 (11763286_at) / Fold change /veh TMEM53 (11763286_at) / RFU MAGEB2 (11727129_at) / Fold change /veh MAGEB2 (11727129_at) / RFU TMEM200A (11744735_a_at) / Fold change /veh TMEM200A (11744735_a_at) / RFU CCDC152 (11751479_a_at) / Fold change /veh CCDC152 (11751479_a_at) / RFU FAM211A (11726209_a_at) / Fold change /veh FAM211A (11726209_a_at) / RFU RGS16 (11746705_a_at) / Fold change /veh RGS16 (11746705_a_at) / RFU VCAN (11755009_s_at) / Fold change /veh VCAN (11755009_s_at) / RFU RHOB (11743442_s_at) / Fold change /veh RHOB (11743442_s_at) / RFU RGS16 (11720943_a_at) / Fold change /veh RGS16 (11720943_a_at) / RFU RGS16 (11720944_at) / Fold change /veh RGS16 (11720944_at) / RFU, VPS4B / Fold change vs veh, VPS4B / RFU, CREB1 / Fold change vs veh, CREB1 / RFU, DNAJC13 / Fold change vs veh, DNAJC13 / RFU, GNAQ / Fold change vs veh, GNAQ / RFU, CDK5R1 / Fold change vs veh, CDK5R1 / RFU, ZRANB3 / Fold change vs veh, ZRANB3 / RFU, CUL4A / Fold change vs veh, CUL4A / RFU, CCNY / Fold change vs veh, CCNY / RFU, UFL1 / Fold change vs veh, UFL1 / RFU, COG3 / Fold change vs veh, COG3 / RFU, DIAPH2 / Fold change vs veh, DIAPH2 / RFU, SKA2 / Fold change vs veh, SKA2 / RFU, AFF3 / Fold change vs veh, AFF3 / RFU, LMF1 / Fold change vs veh, LMF1 / RFU, IPO11 / Fold change vs veh, IPO11 / RFU, DFFB / Fold change vs veh, DFFB / RFU, FOXP1 / Fold change vs veh, FOXP1 / RFU, CARD8 / Fold change vs veh, CARD8 / RFU, STRN3 / Fold change vs veh, STRN3 / RFU, ADK / Fold change vs veh, ADK / RFU, RASSF2 / Fold change vs veh, RASSF2 / RFU, WIPF1 / Fold change vs veh, WIPF1 / RFU, LARP1B / Fold change vs veh, LARP1B / RFU, RASA1 / Fold change vs veh, RASA1 / RFU, RB1 / Fold change vs veh, RB1 / RFU, PPFIA1 / Fold change vs veh, PPFIA1 / RFU, MAT2A / Fold change vs veh, MAT2A / RFU, CCT5 / Fold change vs veh, CCT5 / RFU, WDR92 / Fold change vs veh, WDR92 / RFU, CUX1 / Fold change vs veh, CUX1 / RFU, TTC7A / Fold change vs veh, TTC7A / RFU, TMEM135 / Fold change vs veh, TMEM135 / RFU, DEPTOR / Fold change vs veh, DEPTOR / RFU, CPM / Fold change vs veh, CPM / RFU, DNAJB6 / Fold change vs veh, DNAJB6 / RFU, CACNA2D3 / Fold change vs veh, CACNA2D3 / RFU, DTX4 / Fold change vs veh, DTX4 / RFU, TFCP2 / Fold change vs veh, TFCP2 / RFU, GMCL1 /// GMCL1P1 / Fold change vs veh, GMCL1 /// GMCL1P1 / RFU, AEBP2 / Fold change vs veh, AEBP2 / RFU, SNHG1 /// SNORD22 /// SNORD25 /// SNORD26 /// SNORD27 /// SNORD28 /// SNORD29 /// SNORD31 / Fold change vs veh, SNHG1 /// SNORD22 /// SNORD25 /// SNORD26 /// SNORD27 /// SNORD28 /// SNORD29 /// SNORD31 / Fold change (Aza/veh), C12orf56 (ProbeSet 11735607_a_at) / Fold change (ACY-1035/veh), C12orf56 (ProbeSet 11735607_a_at) / Fold change (Aza/veh), FGFR1OP (ProbeSet 11751329_s_at) / Fold change (ACY-1035/veh), FGFR1OP (ProbeSet 11751329_s_at) / Fold change (Aza/veh), VPS36 (ProbeSet 11739960_a_at) / Fold change (ACY-1035/veh), VPS36 (ProbeSet 11739960_a_at) / RFU SYPL1 (11715823_x_at) / Fold change /veh SYPL1 (11715823_x_at) / RFU IGFBP7 (11715501_s_at) / Fold change /veh IGFBP7 (11715501_s_at) / RFU REEP3 (11722064_at) / Fold change /veh REEP3 (11722064_at) / RFU IGLL1 (11728026_x_at) / Fold change /veh IGLL1 (11728026_x_at): dose or concentration left out as unconfirmed
Conditions: MV-4-11 cells, 48 hours

## Nc1ncn([C@@H]2O[C@H](CO)[C@@H](O)[C@H]2O)c(=O)n1 [azacitidine]
  Fold change /veh IL23R (11737362_x_at): 1.70
